The record followed here is ChEMBL document CHEMBL1137936, “Optimization of the indolyl quinolinone class of KDR (VEGFR-2) kinase inhibitors: effects of 5-amido- and 5-sulphonamido-indolyl groups on pharmacokinetics and hERG binding” (Bioorg Med Chem Lett, 2004).

Data set [1] is described as follows: Half life in dog plasma. Format: ADME, organism-based, Canis lupus familiaris.
In data set [2] the target is T1, Voltage-gated inwardly rectifying potassium channel KCNH2 (Homo sapiens, UniProt Q12809). In words: Affinity for HERG voltage-gated potassium channel subunit Kv11.1.
T1 sequence (Q12809 whole entry): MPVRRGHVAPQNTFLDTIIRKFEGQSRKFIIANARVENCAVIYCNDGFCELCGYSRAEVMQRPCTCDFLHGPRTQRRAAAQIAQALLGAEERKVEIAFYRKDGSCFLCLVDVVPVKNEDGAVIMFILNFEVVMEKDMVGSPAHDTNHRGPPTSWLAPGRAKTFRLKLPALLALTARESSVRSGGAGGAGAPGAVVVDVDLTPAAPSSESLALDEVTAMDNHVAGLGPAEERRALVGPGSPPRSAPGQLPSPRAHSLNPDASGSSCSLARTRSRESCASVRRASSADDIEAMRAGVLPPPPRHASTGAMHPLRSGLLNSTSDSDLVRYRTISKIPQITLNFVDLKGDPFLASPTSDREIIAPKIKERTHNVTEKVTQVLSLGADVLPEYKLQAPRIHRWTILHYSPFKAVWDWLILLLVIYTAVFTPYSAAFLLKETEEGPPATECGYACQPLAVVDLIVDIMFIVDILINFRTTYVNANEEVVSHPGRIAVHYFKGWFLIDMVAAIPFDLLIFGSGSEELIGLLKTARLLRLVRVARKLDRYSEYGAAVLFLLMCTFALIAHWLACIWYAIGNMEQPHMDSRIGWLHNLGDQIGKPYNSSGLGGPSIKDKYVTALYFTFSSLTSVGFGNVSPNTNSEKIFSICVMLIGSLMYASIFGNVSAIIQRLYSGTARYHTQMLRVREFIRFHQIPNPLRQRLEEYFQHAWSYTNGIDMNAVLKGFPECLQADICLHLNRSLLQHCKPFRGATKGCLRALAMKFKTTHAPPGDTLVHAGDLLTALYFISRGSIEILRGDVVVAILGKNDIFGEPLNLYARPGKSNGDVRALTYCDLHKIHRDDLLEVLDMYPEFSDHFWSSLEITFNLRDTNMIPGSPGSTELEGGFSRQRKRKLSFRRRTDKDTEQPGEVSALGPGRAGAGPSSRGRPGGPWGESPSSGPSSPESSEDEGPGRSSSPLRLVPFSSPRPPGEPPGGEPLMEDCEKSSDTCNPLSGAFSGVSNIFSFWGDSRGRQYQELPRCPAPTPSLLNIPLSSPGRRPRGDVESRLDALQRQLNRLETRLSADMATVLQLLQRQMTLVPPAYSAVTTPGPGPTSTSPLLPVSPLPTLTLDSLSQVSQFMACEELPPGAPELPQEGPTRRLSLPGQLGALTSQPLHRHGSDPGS
In data set [3] the target is Vascular endothelial growth factor receptor 2 (Homo sapiens, UniProt P35968). In words: Inhibition of VEGF receptor 2 mediated phosphorylation of poly-Glu/Tyr (4:1).
Chain of Vascular endothelial growth factor receptor 2 (P35968 whole entry): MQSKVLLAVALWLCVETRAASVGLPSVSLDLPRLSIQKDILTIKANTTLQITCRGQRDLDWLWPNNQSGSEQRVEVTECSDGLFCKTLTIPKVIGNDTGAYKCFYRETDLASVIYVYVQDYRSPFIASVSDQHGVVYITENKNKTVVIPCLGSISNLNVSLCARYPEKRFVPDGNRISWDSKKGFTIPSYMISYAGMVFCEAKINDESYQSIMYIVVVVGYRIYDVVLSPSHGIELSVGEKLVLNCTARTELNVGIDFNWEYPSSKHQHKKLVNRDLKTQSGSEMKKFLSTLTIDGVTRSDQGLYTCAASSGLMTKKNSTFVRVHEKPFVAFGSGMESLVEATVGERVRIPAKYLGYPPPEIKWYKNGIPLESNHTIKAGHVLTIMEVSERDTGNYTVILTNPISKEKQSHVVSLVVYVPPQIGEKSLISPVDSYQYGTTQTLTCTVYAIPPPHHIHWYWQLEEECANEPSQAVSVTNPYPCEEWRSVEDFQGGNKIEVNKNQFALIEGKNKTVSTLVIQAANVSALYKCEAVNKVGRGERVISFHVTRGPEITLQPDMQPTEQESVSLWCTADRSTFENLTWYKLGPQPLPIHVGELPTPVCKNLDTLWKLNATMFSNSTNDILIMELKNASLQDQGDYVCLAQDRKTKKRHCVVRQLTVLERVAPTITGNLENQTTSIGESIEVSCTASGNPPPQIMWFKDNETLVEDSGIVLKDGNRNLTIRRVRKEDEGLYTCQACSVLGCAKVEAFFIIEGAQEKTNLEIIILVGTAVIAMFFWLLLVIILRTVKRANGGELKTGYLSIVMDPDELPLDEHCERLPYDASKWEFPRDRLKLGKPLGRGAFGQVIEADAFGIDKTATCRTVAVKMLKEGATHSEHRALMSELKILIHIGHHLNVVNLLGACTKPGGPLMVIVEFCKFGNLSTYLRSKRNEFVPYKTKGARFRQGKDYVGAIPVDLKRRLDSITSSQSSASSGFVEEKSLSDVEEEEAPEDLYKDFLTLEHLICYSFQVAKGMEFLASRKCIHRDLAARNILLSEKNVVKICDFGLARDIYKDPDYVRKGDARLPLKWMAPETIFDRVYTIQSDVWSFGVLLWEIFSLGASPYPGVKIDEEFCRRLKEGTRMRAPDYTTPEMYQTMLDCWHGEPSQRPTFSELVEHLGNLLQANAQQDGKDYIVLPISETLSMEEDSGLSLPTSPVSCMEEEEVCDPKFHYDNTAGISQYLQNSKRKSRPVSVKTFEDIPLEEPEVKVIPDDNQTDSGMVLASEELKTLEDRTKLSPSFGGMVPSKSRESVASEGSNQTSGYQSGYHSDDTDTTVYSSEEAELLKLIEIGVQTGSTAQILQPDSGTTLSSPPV
The nature of data set [4]: Compound was tested for the inhibition of VEGF-stimulated mitogenesis as determined in human umbilical vein endothelial cells. The data set is classed as functional, cell-based. The following applies: endothelial cell.
Data set [5] in a line: Plasma clearance in dogs. Format: ADME, organism-based, Canis lupus familiaris. The following applies: dog.
A short description of data set [6]: Partition coefficient (logP). Format: physicochemical. The conditions noted are these: octanol/water.
Data set [7] in a line: Volume distribution in rat after administration of 2 mg/kg iv. The data set is classed as ADME, organism-based. Further details: dose 2 mg/kg, route intravenous. The following applies: in vivo, read-out: Vss.
The nature of data set [8]: Half life in dog plasma after administration of 1 mg/kg iv. Format: ADME, organism-based, Canis lupus familiaris. Further details: dose 1 mg/kg, route intravenous.
Data set [9] is described as follows: Volume distribution in dog after administration of 1 mg/kg iv. Format: ADME, organism-based, Canis lupus familiaris. More on the design: dose 1 mg/kg, route intravenous. The conditions noted are these: in vivo, read-out: Vss.
Data set [10] can be described thus: Oral bioavailability in rat (dose 10 mg/kg p.o.). The data set is classed as ADME, organism-based. The conditions noted are these: in vivo.
Data set [11] is described as follows: Cmax in monkey after administration of 1 mg/kg iv. Format: ADME, organism-based. More on the design: dose 1 mg/kg, route intravenous. The conditions noted are these: cercopithecidae, in vivo.
Data set [12] in a line: Cmax in rat after administration of 2 mg/kg iv. The following applies: in vivo. More on the design: dose 2 mg/kg, route intravenous. The data set is classed as ADME, organism-based.
The nature of data set [13]: Plasma clearance in rat after administration of 2 mg/kg iv. The data set is classed as ADME, organism-based. More on the design: dose 2 mg/kg, route intravenous.
Data set [14] in a line: Oral bioavailability in dog (dose 1 mg/kg p.o.). The data set is classed as ADME, organism-based, Canis lupus familiaris. The conditions noted are these: in vivo.
A short description of data set [15]: Volume distribution in monkey after administration of 1 mg/kg iv. The conditions noted are these: cercopithecidae, in vivo, read-out: Vss. Further details: dose 1 mg/kg, route intravenous. The data set is classed as ADME, organism-based.
A short description of data set [16]: Half life in rat plasma after administration of 2 mg/kg iv. Format: ADME, organism-based. Further details: dose 2 mg/kg, route intravenous.
The nature of data set [17]: Plasma clearance in monkey after administration of 1 mg/kg iv. The conditions noted are these: cercopithecidae. The data set is classed as ADME, organism-based. Further details: dose 1 mg/kg, route intravenous.
A short description of data set [18]: Oral bioavailability in monkey (dose 1 mg/kg p.o.). Format: ADME, organism-based. The following applies: cercopithecidae, in vivo.
A short description of data set [19]: Plasma clearance in dog after administration of 1 mg/kg iv. Format: ADME, organism-based, Canis lupus familiaris. More on the design: dose 1 mg/kg, route intravenous.
Data set [20] in a line: Cmax in dog after administration of 1 mg/kg iv. The data set is classed as ADME, organism-based, Canis lupus familiaris. Further details: dose 1 mg/kg, route intravenous. The following applies: in vivo.
The nature of data set [21]: Half life in monkey plasma after administration of 1 mg/kg iv. The data set is classed as ADME, organism-based. The following applies: cercopithecidae. Further details: dose 1 mg/kg, route intravenous.
Data set [22] is described as follows: Half life in dog plasma after administration of 0.25 mg/kg iv. The data set is classed as ADME, organism-based, Canis lupus familiaris. More on the design: dose 0.25 mg/kg, route intravenous.
Data set [23] has as its target T1, Voltage-gated inwardly rectifying potassium channel KCNH2. Briefly: Effect on prolongation of the heart rate-corrected QT interval. Format: functional.
Data set [24] can be described thus: Oral bioavailability in rat after administration of 10 mg/kg po. The following applies: in vivo. The data set is classed as ADME, organism-based.
The nature of data set [25]: Plasma clearance in dog after administration of 0.25 mg/kg iv. The data set is classed as ADME, organism-based, Canis lupus familiaris. Further details: dose 0.25 mg/kg, route intravenous.

In the case of `NC1CCN(C(=O)c2ccc3[nH]c(-c4cc5ccccc5nc4O)cc3c2)C1` (stereo not given), the half-life in [1] was 1.1 h. Further, the IP in [2] was greater than 10000 nM. The half-inhibitory concentration (IC50) in [3] was 5 nM; in data set [4], 4 nM. Moreover, the clearance in data set [5] worked out at 26 mL/min/kg.
Molecule `CN1CCN(S(=O)(=O)c2ccc3[nH]c(-c4cc5ccccc5nc4O)cc3c2)CC1` yielded a log partition coefficient (logP) in [6] of 3. The Vd in data set [7] turned out to be 0.9 L/kg; in data set [9] it was 0.3 L/kg; in data set [15] it was 2.1 L/kg. The half-life in [8] was 6.4 h; in data set [1], 6.4 h; in data set [16], 1.1 h; in [21], 3.4 h. For the same molecule, the IP in data set [2] amounted to 3440 nM. Besides, the bioavailability in data set [10] worked out at 54%; in data set [14] it was 63%; in data set [18] it was 40%. Also, the peak concentration (Cmax) was determined as 630 nM in data set [11], 4800 nM in data set [12] and 5200 nM in data set [20]. The clearance in [13] was 29 mL/min/kg; in [17], 12 mL/min/kg; in data set [19], 0.5 mL/min/kg; in data set [5] it was 0.5 mL/min/kg. The IC50 in data set [3] amounted to 10 nM; in data set [4], 31 nM.
As to `O=c1[nH]c2ccccc2cc1-c1nc2ccccc2[nH]1`, inhibition in data set [4] was half-maximal at 1140 nM (IC50).
Regarding `COCCN(C)CCOc1ccc2[nH]c(-c3cc4ccccc4nc3O)cc2c1`, in [6], the lipophilicity (logP) stood at 3.1. Besides, in data set [7], the Vd worked out at 5 L/kg. Moreover, the half-life was less than 1 h in data set [1], less than 1 h in data set [22] and 1.4 h in data set [16]. For the same molecule, in data set [2], the IP is recorded as 1950 nM. This molecule had a Cmax in data set [12] of 470 nM. Further, the values for the clearance in data set [13], in data set [25] and in data set [5] were 56 mL/min/kg, greater than 50 mL/min/kg and greater than 50 mL/min/kg, respectively. Besides, the half-maximal inhibitory concentration (IC50) in [3] is 7 nM; in [4] it was 8 nM. Also, the EC10 in data set [23] worked out at 1900 nM. In data set [24], this molecule came in with a bioavailability of 20%.
Molecule `O=C(O)C1CCN(CCCOc2ccc3[nH]c(-c4cc5ccccc5nc4O)cc3c2)CC1` showed a lipophilicity (logP) in data set [6] of 0.9. In data set [1], this molecule gave a half-life of 3.2 h. The IP in [2] was 3050 nM. Besides, the figures for the IC50 in data set [3] and in data set [4] were 8 nM and 41 nM, respectively. In [23], this molecule came in with a 10% effect concentration (EC10) of 5200 nM. This molecule also returned a clearance in data set [5] of 7.7 mL/min/kg.
The molecule `O=c1[nH]c2ccccc2cc1-c1cc2cc(S(=O)(=O)N3CCNCC3)ccc2[nH]1` showed a lipophilicity (logP) in data set [6] of 2.3. In data set [1], the half-life is 12.7 h. Also, in [2], the IP turned out to be 2450 nM. Further, the results for the IC50 in data set [3] and in [4] were 11 nM and 30 nM, respectively. Also, in [5], the clearance stood at 3.5 mL/min/kg.
The molecule `CC(=O)N1CCN(CCOc2ccc3[nH]c(-c4cc5ccccc5nc4O)cc3c2)CC1` yielded a log partition coefficient (logP) in data set [6] of 3.2. In addition, in data set [1], the half-life is 2.2 h. This molecule returned an IP in data set [2] of 520 nM. Further, the IC50 in [3] and in data set [4] was 4 nM in each case. Besides, the clearance in data set [5] came to 7.8 mL/min/kg.
Consider `O=C(c1ccc2[nH]c(-c3cc4ccccc4nc3O)cc2c1)N1CCNCC1`, for which the lipophilicity (logP) in data set [6] was 1.7. Also, in data set [1], the half-life was 4.2 h. Besides, in data set [2], the IP is greater than 10000 nM. Besides, the results for the half-maximal inhibitory concentration (IC50) in [3] and in data set [4] were 5 nM and 4 nM, respectively. The clearance in data set [5] amounted to 27 mL/min/kg.
Turning to `O=c1[nH]c2ccccc2cc1-c1cc2ccccc2[nH]1`, in data set [4], inhibition was half-maximal at 184 nM (IC50).
Turning to `NC1CCN(S(=O)(=O)c2ccc3[nH]c(-c4cc5ccccc5nc4O)cc3c2)C1` (stereo not given), the half-life in [1] was 3.4 h. The molecule further displayed an IP in data set [2] of 2650 nM. Besides, the half-maximal inhibitory concentration (IC50) was 16 nM in [3] and 27 nM in data set [4]. In data set [5], the clearance stood at 11 mL/min/kg.
Turning to `CN1CCN(C(=O)c2ccc3[nH]c(-c4cc5ccccc5nc4O)cc3c2)CC1`, the logP in data set [6] came out at 2.6. Besides, the Vd in data set [7] was determined as 0.7 L/kg; in data set [9], 2.9 L/kg; in data set [15], 0.9 L/kg. Moreover, the half-life in data set [8] was 2.4 h; in data set [1], 2.4 h; in [16], 2.3 h; in data set [21] it was 2.8 h. The IP in data set [2] was determined as 10800 nM. Moreover, the bioavailability was determined as 31% in [10], 15% in [14] and 46% in data set [18]. The Cmax worked out at 1250 nM in data set [11], 5790 nM in data set [12] and 160 nM in data set [20]. Further, the clearance in data set [13] is 3.8 mL/min/kg; in [17], 3.4 mL/min/kg; in [19] it was 19 mL/min/kg; in data set [5] it was 19 mL/min/kg. Further, the IC50 in data set [3] is 5 nM; in data set [4], 4 nM.
In [1], `O=C(NC1CCNC1)c1ccc2[nH]c(-c3cc4ccccc4nc3O)cc2c1` (stereo not given) gave a half-life of 1.7 h. In data set [2], the IP was determined as 13700 nM. The IC50 in data set [3] came to 6 nM; in [4] it was 53 nM. Also, the clearance in data set [5] was 38 mL/min/kg.
As for `Oc1nc2ccccc2cc1-c1cc2cc(OCCN3CCCCC3)ccc2[nH]1`, the logP in [6] turned out to be 3.7. This molecule also had a half-life in data set [1] of 1.3 h. Besides, the IP in data set [2] was found to be 980 nM. Moreover, the figures for the concentration for half-maximal inhibition (IC50) in data set [3] and in [4] were 4 nM and 17 nM, respectively. The molecule further showed an EC10 in data set [23] of 640 nM. Further, the clearance in [5] is greater than 50 mL/min/kg.
In data set [1], `O=c1[nH]c2ccccc2cc1-c1cc2cc(S(=O)(=O)NC3CCNC3)ccc2[nH]1` (stereo not given) had a half-life of 9.5 h. The same molecule displayed an IP in data set [2] of 2835 nM. The IC50 in data set [3] was 14 nM; in data set [4], 97 nM. The same molecule returned a clearance in [5] of 0.4 mL/min/kg.

In general, half-life refers to the time in which the quantity being followed falls by half. As a reminder, the IC50 is the point on the concentration scale where inhibition reaches its midpoint. The term clearance denotes the volume of plasma or blood freed of the substance per unit of time. A word on the logP: it is the decadic logarithm of the partition coefficient of the neutral form, usually between octanol and water. By bioavailability is commonly meant the share of a dose that reaches the circulation, judged against a reference dose that is usually intravenous. By Cmax is commonly meant the highest concentration seen after dosing. The term EC10 denotes the concentration needed for an effect of 10%.
